One data set concerns 16-HBE cells. In words: Cytotoxicity MTT assay. It is filed as cell-based, human. The note with it: 1~8 μg/mL, 16 h. The method, then: (§1) The presence of compounds can influence cellular basic physiological processes, suppress proliferation and even reduce cell survival, etc. In the community, MRSA generally causes respiratory infection. Therefore, cytotoxicity was evaluated to explore the effect of compounds 12c and 22c on the viability of the respiratory tract cells 16-HBE (human bronchial epithelial cell line). RAW 264.7 (mouse peritoneal macrophage cell line) and Caco-2 (human epithelial colorectal adenocarcinoma cell line) were also used to evaluate the cytotoxicity of compounds 12c and 22c by MTT assay.
(§2) Cytotoxicity of the test compounds was assessed using the conventional MTT method. RAW 264.7 murine macrophage cells, Caco-2 cells and 16-HBE were used in this experiment. The cells were seeded into 96-well plates at a density of 1.0 × 10^5 cells per well. After 4 h at 37 °C, the cells were treated with compounds 12c and 22c at various concentrations and incubated at 37 °C for 16 h. Next, MTT (0.5 mg/mL in PBS, 100 μL/well) was added sequentially to each well in a humidified atmosphere of 95% air and 5% CO2 incubator and the incubation continued for an additional four hours. After incubation, the medium was peeled off and DMSO (150 μL/well) was added to dissolve the cells, and then the incubation was continued for 30 min. At the end of this period, the absorbance was measured at 490 nm by a microplate spectrophotometer (BIO-TEK Instruments, Winooski, VT, USA).
On the technique in general: Formazan colour is commonly taken as a measure of viable cells.

Another data set relates to Caco-2 cells. In words: Cytotoxicity MTT assay. The data set is classed as cell-based, human. The following applies: 1~8 μg/mL, 16 h. The method, then:
as §1, §2

Data set [1] has as its system MRSA ATCC 43300. Nature of the data set: Neutropenic murine thigh infection model. The data set is classed as in vivo. The following applies: neutropenic mice, 20 mg/kg, 24 h after dosing, n = 6/group. The method, then: Therefore, the in vivo efficacy of compounds 12c and 22c were assessed using the murine neutropenic thigh infection model. Mice groups treated with saline and tiamulin were chosen as the negative and positive controls.
Model experiments of neutropenic mouse thigh infection were manipulated as described in the literature. Female, six-week-old, specific-pathogen-free mice weighing approximately 23~26 g were used throughout the study. Mice were rendered neutropenic by injection of cyclophosphamide (Mead Johnson Pharmaceuticals, Evansville, IN) on day 4 (150 mg/kg) and day 1 (100 mg/kg) before the experiment. The neutrophil numbers in mice blood should be <0.1 × 10^9/L [34]. In total, 0.1 mL of MH broth of MRSA (10^7 CFU/mL) was inoculated into each thigh of the neutropenic mice. Mice were divided into 4 groups (6 mice per group), including control (sterile saline), compounds 12c, 22c and tiamulin groups. After 3 h post-infection, the corresponding drugs were injected into each mouse’s thigh. Mice were euthanized following intravenous injection for 24 h. Thigh tissue of each mouse was removed, collected, weighed and homogenized in 3 mL of ice sterile saline. Six ten-fold serial dilutions were performed and 25 μL of the bacterial solution from each tube was plated on MH agar plates. The resulting colonies were counted after 24 h incubation at 37 °C. The protocol for this study was reviewed and approved by the Institutional Animal Care and Use Committee of the South China Agricultural University.

The test system of another data set is S. aureus ATCC 29213. Nature of the data set: MIC/MBC by broth dilution (CLSI). The data set is classed as cell-based. The note with it: Staphylococcus aureus, ATCC29213. The gist of the method: (§3)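 CLSI broth dilution used twofold compound series from 64 to 0.0625 µg/mL (stocks in water with 2.5% DMSO and 2.5% Tween-80) and a final inoculum of 5 × 10^5 CFU/mL, in triplicate. For MBC, 25 µL from wells without visible growth was plated on MH agar and cultured 24 h at 37 °C.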
In general terms: Broth dilution looks for growth in wells or tubes with falling amounts of substance.

For the next data set, the system named is S. aureus 144. Nature of the data set: MIC/MBC by broth dilution (CLSI). The note with it: Staphylococcus aureus; S. aureus 144 (clinical strain). The data set is classed as cell-based. The method, boiled down: as §3
Another data set concerns S. aureus AD3. Nature of the data set: MIC/MBC by broth dilution (CLSI). The following applies: Staphylococcus aureus; S. aureus AD3 (clinical strain). The data set is classed as cell-based. The gist of the method: as §3
The test system of data set [2] is MRSA ATCC 43300. Nature of the data set: MIC/MBC by broth dilution (CLSI). It is filed as cell-based, Staphylococcus aureus. The gist of the method:
as §3

In data set [3] the test system is MRSA ATCC 43300. In words: Constant concentration time–kill curves. The data set is classed as cell-based, Staphylococcus aureus. The method, then:
Time–kill kinetic assays were performed, which were used to investigate the in vitro bactericidal kinetic effect of compounds 12c, 19c, 22c and tiamulin.
Time–kill curve assays were established with the MIC value to investigate the antibacterial effect of constant drug concentration on MRSA. […] MRSA ATCC 43300 was incubated in MH broth at 37 °C for 4.5 h and diluted to 1 × 10^6 CFU/mL in MH broth. The saline control group was subjected to the same schedule but 0.9% saline water was added instead of the test compound. All the samples were incubated in an oscillating thermostatic at 37 °C, and then 100 μL of the mixture was extracted to 900 μL of sterile saline (0.9%) at 0, 3, 6, 9, 12 and 24 h, respectively. Samples were serially diluted 10-fold in sterile saline (0.9%) and inoculated onto agar plates. The colonies were counted after incubation at 37 °C for 24 h. Three independent experiments were performed according to our previous work. Time–kill curves were constructed by plotting the log10 CFU per millilitre versus time, and the change in bacterial concentration was determined.

Data set [4] concerns MRSA ATCC 43300. Nature of the data set: Post-antibiotic effect (PAE). The data set is classed as cell-based, Staphylococcus aureus. The method, then:
PAE has been considered as pharmacodynamic assistance which provides a reference for the rational formulation of dosing regimen. PAE refers to the temporary suppression of bacterial growth following transient antibiotic treatment. PAE assays were conducted for compounds 12c and 22c.
PAE is calculated from growth curves on the difference in time required for the number (1 log10 CFU/mL) of drug-exposed and unexposed microbes. […] The PAE values of compounds 12c and 22c increased with increasing incubation time.
PAE of compounds 12c and 22c on MRSA ATCC 43300 was determined using MH broth according to our previous work. The final concentration of MRSA was 1 × 10^6 CFU/mL by dilution with MH broth. Compounds 12c, 22c and tiamulin were supplemented in the suspension at a final concentration of 2 × MIC and 4 × MIC, respectively. The negative control group contained untreated MRSA bacterial cells. The test tubes were incubated with a 37 °C constant temperature vibration incubator for 1 and 2 h. After incubation, the test compound was removed from the sample by diluting 1000-fold with the preheated MH broth. Next, 100 μL of suspension from each culture was 10-fold diluted in sterile saline and inoculated on MH agar plates at 0, 2, 4, 6 and 8 h after inoculation. The number of colonies was calculated after incubation at 37 °C for 24 h. The experiments were performed in triplicate.

The MBC is the lowest tested concentration that kills the bacteria rather than only halting them. A lower MBC goes with greater bactericidal potency. As a reminder, the MIC is the smallest concentration in the dilution series that meets the test's criterion for growth inhibition. By melting point is commonly meant the temperature, or range, at which the solid turns liquid.

Converted amounts (≈) assume the structure as drawn.

Molecule `C=C[C@]1(C)C[C@@H](OC(=O)CSc2ccc(Nc3nc(Cl)nc4c3cnn4-c3cccc(C)c3)cc2)[C@]2(C)[C@H](C)CC[C@]3(CCC(=O)[C@H]32)[C@@H](C)[C@@H]1O` [Compound 12c, 22-[4-(6-Chloro-1-(3-methylphenyl)-1H-pyrazolo[3,4-d]pyrimidine-4-yl)amino-Phenylsulfanyl]-22-deoxypleuromutilin] registered a melting point of 95 to 97 °C. Further, the “effect on viability of 16-HBE cells” value with 16-HBE cells is “did not affect the viability”. In addition, in the data set on Caco-2 cells, the “effect on viability of Caco-2 cells” value was “did not affect the viability”. In the data set on MRSA ATCC 43300 [1], the “reduction of MRSA load in thigh vs growth control” value is −0.79 log10 CFU/mL. Moreover, the minimum bactericidal concentration (MBC) against S. aureus ATCC 29213 (S. aureus ATCC 29213) was determined as 0.5 µg/mL (≈ 0.686 µM). Further, in the data set on S. aureus ATCC 29213 (S. aureus ATCC 29213, broth dilution, 24 h, 37 °C), the MIC is 0.25 µg/mL (≈ 0.343 µM). Moreover, in the data set on S. aureus 144, the minimal bactericidal concentration (MBC) amounted to 1 µg/mL (≈ 1.37 µM) and it took 0.5 µg/mL (≈ 0.686 µM) to inhibit growth (MIC). In the data set on S. aureus AD3, the MBC was found to be 0.25 µg/mL (≈ 0.343 µM) and it took 0.125 µg/mL (≈ 0.172 µM) to inhibit growth (MIC). The minimum bactericidal concentration (MBC) against MRSA ATCC 43300 [2] (Staphylococcus aureus, MRSA ATCC 43300, 99.9% of the bacteria killed) came out at 0.5 µg/mL (≈ 0.686 µM). Also, the MIC in the data set with MRSA ATCC 43300 [2] (Staphylococcus aureus, MRSA ATCC 43300, broth dilution, 24 h, 37 °C, read-out: MIC) came to 0.25 µg/mL (≈ 0.343 µM). Further, the MBC/MIC ratio with MRSA ATCC 43300 [2] (against MRSA) is on record as not above 2. Besides, in the data set with MRSA ATCC 43300 [3] (2 × MIC, 24 h incubation), the “MRSA killed in time–kill assay” value stood at 99.99% and the “reduction of MRSA in time–kill assay” value is listed as −4.51 log10 CFU/mL. Besides, in the data set on MRSA ATCC 43300 [3] (4 × MIC), the “reduction of MRSA in time–kill assay” value was −5.76 log10 CFU/mL. In the data set on MRSA ATCC 43300 [3] (time–kill curves, 1 to 32 × MIC), the “type of bactericidal kinetics” value is listed as “time-dependent”. Moreover, in the data set with MRSA ATCC 43300 [4] (2 × MIC, exposure for 1 h), the PAE is 0.37 h. This molecule displayed a PAE with MRSA ATCC 43300 [4] (2 × MIC, exposure for 2 h) of 1.72 h. The molecule also yielded a PAE in the data set with MRSA ATCC 43300 [4] (4 × MIC, exposure for 1 h) of 0.43 h. This molecule also registered a PAE in the data set with MRSA ATCC 43300 [4] (4 × MIC, exposure for 2 h) of 1.73 h.
